What all share (experiment): NCI tumour cell line growth inhibition, 48 h
Assay [1] concerns UO-31.
In assay [2] the test system is T47D.
Assay [3] relates to SNB-19.
Assay [4] concerns SF-295.
Assay [5] has as its system COLO 205.
Assay [6] concerns NCI-H460.
The test system of assay [7] is SK-MEL-2.
The subject of assay [8] is U-251.
Assay [9] relates to SK-MEL-28.
Assay [10] relates to RPMI-8226.
The subject of assay [11] is Malme-3M.
Assay [12] has as its system MOLT-4.
For assay [13], the system named is LOX IMVI.
In assay [14] the test system is EKVX.
The test system of assay [15] is MDA-N.
For assay [16], the system named is SW-620.
Assay [17] deals with SNB-75.
Assay [18] relates to A549.
The subject of assay [19] is HCC 2998.

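All cell lines were grown in 96-well plates and treated with compound for 48 hours. GI50 is the concentration that inhibits growth by half.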 The source made the active and inactive calls. No stated cut-off is given here; in the data, active = GI50 up to about 1.1 µM and inactive = higher.

Regarding `Oc1ccc(CNCc2ccccc2)c2cccnc12`, the GI50 in [1] is 0.316 µM (active); in [2], 0.0783 µM (active); in assay [3] it was 0.211 µM (active); in assay [4], 0.144 µM (active); in [5] it was 2.65 µM (inactive); in [6], 0.034 µM (active). For the same compound, the GI50 in assay [7] is 0.264 µM (active); in assay [8], 0.0384 µM (active); in [9], 0.424 µM (active); in assay [10], 0.156 µM (active); in [11], 0.321 µM (active); in [12], 0.215 µM (active). Besides, the GI50 was 0.0308 µM (active) in assay [13]; 0.495 µM (active) in assay [14]; 0.0762 µM (active) in assay [15]; 0.356 µM (active) in assay [16]; 0.0291 µM (active) in assay [17]; 0.0875 µM (active) in [18].

Turning to `Brc1ccc(/N=N/c2ccc3ccccc3n2)cc1`, the GI50 in [1] was 11.2 µM (inactive); in assay [2], 22.2 µM (inactive); in [3], 15.9 µM (inactive); in assay [4], 24.8 µM (inactive); in assay [5], > 100 µM (inactive); in [6] it was 7.5 µM (inactive). For the same compound, the GI50 was > 100 µM (inactive) in [7]; 16.7 µM (inactive) in assay [8]; 18.1 µM (inactive) in [10]; 12.8 µM (inactive) in [11]; 17.6 µM (inactive) in assay [14]; 31.8 µM (inactive) in assay [15]. The GI50 is 82.6 µM (inactive) in assay [16], 14.2 µM (inactive) in assay [17] and 46.9 µM (inactive) in [18].

In the case of `Cc1cc(S(=O)(=O)N2CCNNC2=O)c(S)cc1Cl`, the GI50 in [1], in assay [3], in assay [4], in [5], in assay [19] and in assay [6] was > 100 µM (inactive) in each case. For the same compound, the GI50 in [7] is > 100 µM (inactive); in [8] it was > 100 µM (inactive); in assay [9] it was 20 µM (inactive); in [10], 71.4 µM (inactive); in [11], 17.7 µM (inactive); in assay [12] it was 31.6 µM (inactive). Moreover, the GI50 in assay [13] was 28.8 µM (inactive); in [14], > 100 µM (inactive); in assay [15], > 100 µM (inactive); in [16] it was 36.9 µM (inactive); in assay [17] it was > 100 µM (inactive); in [18], 56.4 µM (inactive).

With `COc1ccc(C2c3cc4c(c(OC)c3CC3OCC(=O)C32)OCO4)cc1OC` (stereo unspecified), the GI50 in assay [1] was 0.074 µM (active); in [3] it was 0.0538 µM (active); in assay [4], 0.0307 µM (active); in [5], 0.0267 µM (active); in [19], 0.129 µM (active); in assay [6] it was 0.0625 µM (active). In addition, the GI50 in assay [7] was 0.78 µM (active); in [8], 0.0504 µM (active); in assay [9], 31.9 µM (inactive); in assay [10] it was 0.0501 µM (active); in assay [12], 0.13 µM (active); in assay [13], 0.0518 µM (active). Also, the GI50 in assay [14] is 0.0605 µM (active); in assay [15], < 0.01 µM (active); in [16] it was 0.0366 µM (active); in assay [18] it was 0.0647 µM (active).

Consider `COc1ccc2nc(/C(N)=C\C#N)ccc2c1`, for which the GI50 was 32.8 µM (inactive) in assay [1]; 30.9 µM (inactive) in [2]; > 100 µM (inactive) in [3]; 93.8 µM (inactive) in [4]; 56 µM (inactive) in assay [5]; > 100 µM (inactive) in assay [6]. For the same compound, the GI50 in assay [7] is 49.5 µM (inactive); in assay [8], 60.5 µM (inactive); in assay [9], > 100 µM (inactive); in [10] it was 37.5 µM (inactive); in assay [11], > 100 µM (inactive); in assay [12] it was 23.9 µM (inactive). Moreover, the GI50 in [13] is 36 µM (inactive); in assay [14], 0.15 µM (active); in [15] it was 45.3 µM (inactive); in assay [16], > 100 µM (inactive); in [17] it was > 100 µM (inactive); in assay [18] it was 47.2 µM (inactive).

`Cc1n[nH]c(=O)c2c3c([nH]c12)-c1ccccc1C3`: the GI50 in assay [1] was > 100 µM (inactive); in assay [2] it was 23.5 µM (inactive); in assay [3], > 100 µM (inactive); in assay [4] it was > 100 µM (inactive); in assay [5], > 100 µM (inactive); in [6], > 100 µM (inactive). The GI50 in assay [7] was > 100 µM (inactive); in assay [8], > 100 µM (inactive); in assay [9] it was > 100 µM (inactive); in [10] it was > 100 µM (inactive); in assay [11], > 100 µM (inactive); in [12], 39.9 µM (inactive). Besides, the GI50 in assay [13] was > 100 µM (inactive); in [14], > 100 µM (inactive); in assay [15] it was > 100 µM (inactive); in assay [16], > 100 µM (inactive); in assay [17], 18.7 µM (inactive); in [18], > 100 µM (inactive).

On to `c1ccc(C/C(=N\Nc2nc3ccccc3o2)c2ccccn2)cc1`, for which the GI50 in [1] was 0.09 µM (active); in assay [3], 0.2 µM (active); in assay [4] it was 0.234 µM (active); in assay [5] it was < 0.01 µM (active); in assay [19], < 0.0163 µM (active); in [6] it was 0.0931 µM (active). Also, the GI50 in assay [7] is 0.929 µM (active); in assay [8], 0.198 µM (active); in assay [10], 0.0482 µM (active); in [11] it was 0.0233 µM (active); in [12], < 0.01 µM (active); in [13], 0.185 µM (active). Besides, the GI50 is < 0.01 µM (active) in assay [14], 0.355 µM (active) in assay [15], < 0.013 µM (active) in assay [16] and 0.437 µM (active) in assay [18].

For `COc1ccc(OC)c(C2CCCc3c2cnc2nc(N)nc(N)c32)c1` (stereo unspecified), the GI50 in assay [3] was 0.0703 µM (active); in assay [4] it was < 0.0143 µM (active); in [5], 0.352 µM (active); in [19] it was < 0.01 µM (active); in assay [6] it was < 0.01 µM (active); in assay [7] it was > 100 µM (inactive). Further, the GI50 was > 100 µM (inactive) in assay [9]; 0.0695 µM (active) in assay [10]; < 0.0238 µM (active) in assay [11]; < 0.0168 µM (active) in assay [12]; < 0.01 µM (active) in assay [13]; > 100 µM (inactive) in [14]. In addition, the values for the GI50 in assay [15], in [17] and in assay [18] were < 0.01 µM (active), 0.247 µM (active) and < 0.01 µM (active), respectively.

For the compound `Cc1cn(C2CC(Br)C(COC(c3ccccc3)(c3ccccc3)c3ccccc3)O2)c(=O)[nH]c1=O` (stereo unspecified), the GI50 in assay [1] is 6.71 µM (inactive); in assay [2], 12.3 µM (inactive); in [3] it was 16.3 µM (inactive); in assay [4], 9.68 µM (inactive); in assay [5], 14 µM (inactive); in assay [7] it was 14.6 µM (inactive). The GI50 was 12.3 µM (inactive) in assay [8]; 16.7 µM (inactive) in assay [9]; 4.7 µM (inactive) in assay [10]; 17.6 µM (inactive) in [11]; 8.17 µM (inactive) in assay [12]; 11.9 µM (inactive) in [13]. The GI50 in assay [14] is 14.5 µM (inactive); in [15] it was 14.9 µM (inactive); in assay [16], 14.3 µM (inactive); in assay [17] it was 11.5 µM (inactive); in [18] it was 10.5 µM (inactive).

(Values after ChEMBL document CHEMBL1201862, “PubChem BioAssay data set” (2004).)
